According to patent publication US20250049754A1, “COMPOSITIONS COMPRISING UROLITHIN FOR TREATING MUSCLE DECLINE AND A KIDNEY DYSFUNCTION” (SOCIETE DES PRODUITS NESTLE S.A., priority 2021, published 2025):

Key:
Format in all cases: in vivo
db/db mouse [1] = experiment: Kidney function in the db/db mouse model of type 2 diabetes: urine albumin (ELISA), urinary creatinine (Cobas Integra), 24-hour metabolic caging; settings: db/db mice, 50 mg/kg/day oral gavage; for albumin/creatinine ratio: vs db/db+V group
Protocol: Creatinine was determined using a Cobas Integra autoanalyzer. Excretion of urine albumin was measured by ELISA kit.
Urinary creatinine was determined using a Cobas Integra autoanalyzer.
Excretion of urine albumin was measured by ELISA kit.
The renoprotective effects of Urolithin A were assessed in a mouse model of type 2 diabetes (the db/db mouse).
A mouse model of diabetes was used endorsed by the Diabetic Complications Consortium (DiabComp/AMDCC), the db/db mouse model, which is obese and insulin resistant “type 2”.
Mice were purchased from The Jackson Laboratory (Stock No: 000642) in order to obtain sizeable cohorts to run groups in tandem, which is crucial for reliable testing of mitochondrial function. Eight to nine week-old male db/db mice (n=15 per group) received Urolithin A by oral gavage (50 mg/kg/day) for a duration of 10 weeks. Db/m (control) or db/db (diabetic) mice were randomized to the following treatments:
A suspension of 0.5% carboxymethylcellulose (CMC; Sigma #419303) was first prepared. Urolithin A (16.67 mg/ml) was prepared by dissolving in 0.5% CMC solution and left stirring at room temperature. Urolithin A was dosed at 50 mg/kg/day. The weights of the mice were used to calculate the dosage of Urolithin A to be administered to each mouse, based on weekly bodyweight measurements. Approximately 1001 of 0.5% CMC was given to mice daily in the vehicle groups.
At baseline, mid-point and one week prior to euthanasia, mice underwent metabolic caging for 24 hours to collect urine and to measure food and water intake. Body composition by EchoMRI was performed at baseline, mid-point and two weeks prior to euthanasia to determine fat mass and lean body mass. At baseline and week 9, an oral glucose tolerance test was performed to assess glucose handling. Fasting plasma glucose was measured using a glucose colorimetric assay kit (Cayman, Ann Arbor, USA) at baseline, 15 min and 60 min after glucose treatment. Blood pressure measurements were performed at week 10.
All analyses were performed by ANOVA followed by post hoc paired analysis using Tukey's least significant difference method, correcting for multiple comparisons. A value for p<0.05 was considered as statistically significant. A Z-score of 2 was used to exclude outliers.
One week prior to cull, 24-hour metabolic caging was performed to collect urine, and blood was collected from the submandibular vein. Urine and plasma creatinine was determined using the Cobas Integra autoanalyzer. Urine albumin was measured by ELISA (Bethyl, USA). Blood pressure was determined by tail cuff plethysmography.
Excretion of albumin in the urine over a 24-hour period was measured by ELISA kit (Bethyl). At the endpoint of the study, there was a significant increase in albuminuria in db/db mice when compared to db/m mice. […] Creatinine clearance was calculated from urine and plasma creatinine measured using the Creatinine plus ver.2 (CREP2) assay on a Cobas Integra 400 plus autoanalyzer (Roche Diagnostics). There was a decline in kidney function in db/db mice (Diabetic) as measured by an increase in albuminuria and reduced creatinine clearance at 18-19 weeks of age. Treatment of UA delayed the progression of albuminuria in the db/db mice.

db/db mouse [2] = experiment: Whole body composition (lean mass) by EchoMRI in db/db mice; settings: 50 mg/kg/day oral gavage, 10 weeks, vs db/db+V group
Protocol: The lean mass of muscles was measured using EchoMRI. Mice were purchased from The Jackson Laboratory (Stock No: 000642) in order to obtain sizeable cohorts to run groups in tandem, which is crucial for reliable testing of mitochondrial function. Eight to nine week-old male db/db mice (n=15 per group) received Urolithin A by oral gavage (50 mg/kg/day) for a duration of 10 weeks. Db/m (control) or db/db (diabetic) mice were randomized to the following treatments: A suspension of 0.5% carboxymethylcellulose (CMC; Sigma #419303) was first prepared. Urolithin A (16.67 mg/ml) was prepared by dissolving in 0.5% CMC solution and left stirring at room temperature. Urolithin A was dosed at 50 mg/kg/day. The weights of the mice were used to calculate the dosage of Urolithin A to be administered to each mouse, based on weekly bodyweight measurements. Approximately 1001 of 0.5% CMC was given to mice daily in the vehicle groups. At baseline, mid-point and one week prior to euthanasia, mice underwent metabolic caging for 24 hours to collect urine and to measure food and water intake. […] Fasting plasma glucose was measured using a glucose colorimetric assay kit (Cayman, Ann Arbor, USA) at baseline, 15 min and 60 min after glucose treatment. […] Whole body composition including lean mass and fat mass were measured using EchoMRI at baseline, midpoint and endpoint.

db/db mouse [3] = experiment: Femur bone mass by weighing in db/db mice; settings: 50 mg/kg/day oral gavage, 10 week treatment, vs db/db+V group
Protocol: The bone femur mass was determined by weighing on a precision scale. Mice were purchased from The Jackson Laboratory (Stock No: 000642) in order to obtain sizeable cohorts to run groups in tandem, which is crucial for reliable testing of mitochondrial function. Eight to nine week-old male db/db mice (n=15 per group) received Urolithin A by oral gavage (50 mg/kg/day) for a duration of 10 weeks. Db/m (control) or db/db (diabetic) mice were randomized to the following treatments: A suspension of 0.5% carboxymethylcellulose (CMC; Sigma #419303) was first prepared. Urolithin A (16.67 mg/ml) was prepared by dissolving in 0.5% CMC solution and left stirring at room temperature. Urolithin A was dosed at 50 mg/kg/day. The weights of the mice were used to calculate the dosage of Urolithin A to be administered to each mouse, based on weekly bodyweight measurements. Approximately 1001 of 0.5% CMC was given to mice daily in the vehicle groups. All analyses were performed by ANOVA followed by post hoc paired analysis using Tukey's least significant difference method, correcting for multiple comparisons. A value for p<0.05 was considered as statistically significant. A Z-score of 2 was used to exclude outliers. Left and right femur bones were collected at the end of study, after 10 week treatment, and both femurs were cleaned and snap frozen, weighed and stored at −80° C.

db/db mouse [4] = experiment: Urinary carnosine, anserine and S-adenosylmethionine, semi-quantitative, HILIC chromatography and ESI-orbitrap mass spectrometry, in db/db mice; settings: 50 mg/kg/day oral gavage, 10 weeks, vs db/db+V group
Protocol: Urinary carnosine was determined in a semi-quantitative manner using cold methanol:water:chloroform (5:3:5 (v/v)) extraction to separate the polar metabolites and apolar metabolites. In addition, a protein layer remained in the middle between the two phases. The polar phase was dried overnight in a vacuum centrifuge at 4° C. and 5 mbar, and was dissolved in 60 μl 60% (v/v) acetonitrile:water prior to analysis. The protein layer was quantified with a bicinchoninic acid (BCA) assay (ThermoFisher Scientific) and used for later normalization of the metabolite concentrations. Two microliters of each sample were injected into a hydrophilic interaction chromatography (HILIC) analytical column. The separation was achieved by applying a linear solvent gradient. As mobile phase, solvent A was H2O with 10 mM ammonium acetate (NH4Ac) and 0.04% (v/v) ammonium hydroxide (NH4OH), pH ˜9.3, and solvent B was acetonitrile (ACN). The eluting metabolites, including carnosine, were analyzed with an orbitrap mass spectrometer (Orbitrap Fusion Lumos Tribrid, Thermo Scientific) equipped with a heated electrospray ionisation (H-ESI) source. […]
Urinary anserine was determined in a semi-quantitative manner using cold methanol:water:chloroform (5:3:5 (v/v)) extraction to separate the polar metabolites and apolar metabolites. […] The protein layer was quantified with a bicinchoninic acid (BCA) assay (ThermoFisher Scientific) and used for later normalization of the metabolite concentrations. […] The eluting metabolites, including anserine, were analyzed with an orbitrap mass spectrometer (Orbitrap Fusion Lumos Tribrid, Thermo Scientific) equipped with a heated electrospray ionization (H-ESI) source. […]
Urinary S-adenosylmethionine was determined in a semi-quantitative manner using cold methanol:water:chloroform (5:3:5 (v/v)) extraction to separate the polar metabolites and apolar metabolites. […] The protein layer was quantified with a bicinchoninic acid (BCA) assay (ThermoFisher Scientific) and used for later normalization of the metabolite concentrations. […]

db/db mouse [5] = experiment: Muscle mass of tibialis anterior and quadriceps by weighing in db/db mice; settings: 50 mg/kg/day oral gavage, 10 weeks, vs db/db+V group
Protocol: The muscle mass of the tibialis anterior was measured by weighing on a precision scale. […] The muscle mass of the quadriceps was measured by weighing on a precision scale. Mice were purchased from The Jackson Laboratory (Stock No: 000642) in order to obtain sizeable cohorts to run groups in tandem, which is crucial for reliable testing of mitochondrial function. Eight to nine week-old male db/db mice (n=15 per group) received Urolithin A by oral gavage (50 mg/kg/day) for a duration of 10 weeks. Db/m (control) or db/db (diabetic) mice were randomized to the following treatments: A suspension of 0.5% carboxymethylcellulose (CMC; Sigma #419303) was first prepared. Urolithin A (16.67 mg/ml) was prepared by dissolving in 0.5% CMC solution and left stirring at room temperature. Urolithin A was dosed at 50 mg/kg/day. The weights of the mice were used to calculate the dosage of Urolithin A to be administered to each mouse, based on weekly bodyweight measurements. Approximately 1001 of 0.5% CMC was given to mice daily in the vehicle groups. All analyses were performed by ANOVA followed by post hoc paired analysis using Tukey's least significant difference method, correcting for multiple comparisons. A value for p<0.05 was considered as statistically significant. […] Whole body composition including lean mass and fat mass were measured using EchoMRI at baseline, midpoint and endpoint. […]

## O=c1oc2cc(O)ccc2c2ccc(O)cc12 [UA, 3,8-dihydroxyurolithin]
db/db mouse [1]; 10 weeks, vs vehicle-treated group
  urinary creatinine: higher
db/db mouse [1]; after 5 weeks of treatment (midpoint)
  albumin/creatinine ratio: significantly decreased
db/db mouse [1]; after 10 weeks of treatment (endpoint)
  albumin/creatinine ratio: significantly decreased
db/db mouse [1]; at midpoint (5 weeks)
  albuminuria (24-hour urine albumin excretion): did affect albuminuria
db/db mouse [1]; baseline to 10 weeks, vs vehicle-treated counterparts
  progression of albuminuria: significantly delayed
db/db mouse [2]
  lean mass: significantly increased
db/db mouse [3]
  femur bone mass: significantly increased
db/db mouse [4]
  levels of urinary S-adenosylmethionine (SAM): significantly increased
  levels of urinary anserine: significantly increased
  levels of urinary carnosine: significantly increased
db/db mouse [5]
  muscle mass of the quadriceps: significantly increased
  muscle mass of the tibialis anterior: significantly increased
